pEC50: −log10 of the molar value. Like-named read-outs stand apart in the source and are kept apart here.
Biological target: T1, CFTR (Homo sapiens, UniProt P13569, DEL508-508)
T1 construct: endogenous in cells; host or cells: primary human bronchial epithelial cells from CF subjects (F508del/MF-HBE), differentiated at air-liquid interface
Assay: HBE assay: Ussing chamber assay of CFTR-mediated short-circuit currents
Assay type: cell-based
Settings: for pEC50: read-out: HBE EC50; for activation at 10 µM: read-out: HBE Activity at 10 μM (%)
Method in brief: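 CFTR-mediated Isc (μA/cm²) equals the peak response to apical 20 μM forskolin minus the residual after a 20 μM each BPO/GlyH-101/CFTR inhibitor 172 cocktail, recorded in Ussing chambers at Vhold 0 mV, 37 °C, pH 7.4, with 30 μM apical amiloride. Cells were F508del/MF HBE cultures preincubated 18-24 h with corrector (concentration range or 10 μM) plus 1 μM ivacaftor in 20% human serum.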

[1] = Table 10, read-out: HBE Max activity (%)
[2] = Table 12, read-out: HBE Max Activity (%)
[3] = Table 13, read-out: HBE Max Activity (%)

T1 sequence (P13569 with tags, fused parts or gaps DEL508-508): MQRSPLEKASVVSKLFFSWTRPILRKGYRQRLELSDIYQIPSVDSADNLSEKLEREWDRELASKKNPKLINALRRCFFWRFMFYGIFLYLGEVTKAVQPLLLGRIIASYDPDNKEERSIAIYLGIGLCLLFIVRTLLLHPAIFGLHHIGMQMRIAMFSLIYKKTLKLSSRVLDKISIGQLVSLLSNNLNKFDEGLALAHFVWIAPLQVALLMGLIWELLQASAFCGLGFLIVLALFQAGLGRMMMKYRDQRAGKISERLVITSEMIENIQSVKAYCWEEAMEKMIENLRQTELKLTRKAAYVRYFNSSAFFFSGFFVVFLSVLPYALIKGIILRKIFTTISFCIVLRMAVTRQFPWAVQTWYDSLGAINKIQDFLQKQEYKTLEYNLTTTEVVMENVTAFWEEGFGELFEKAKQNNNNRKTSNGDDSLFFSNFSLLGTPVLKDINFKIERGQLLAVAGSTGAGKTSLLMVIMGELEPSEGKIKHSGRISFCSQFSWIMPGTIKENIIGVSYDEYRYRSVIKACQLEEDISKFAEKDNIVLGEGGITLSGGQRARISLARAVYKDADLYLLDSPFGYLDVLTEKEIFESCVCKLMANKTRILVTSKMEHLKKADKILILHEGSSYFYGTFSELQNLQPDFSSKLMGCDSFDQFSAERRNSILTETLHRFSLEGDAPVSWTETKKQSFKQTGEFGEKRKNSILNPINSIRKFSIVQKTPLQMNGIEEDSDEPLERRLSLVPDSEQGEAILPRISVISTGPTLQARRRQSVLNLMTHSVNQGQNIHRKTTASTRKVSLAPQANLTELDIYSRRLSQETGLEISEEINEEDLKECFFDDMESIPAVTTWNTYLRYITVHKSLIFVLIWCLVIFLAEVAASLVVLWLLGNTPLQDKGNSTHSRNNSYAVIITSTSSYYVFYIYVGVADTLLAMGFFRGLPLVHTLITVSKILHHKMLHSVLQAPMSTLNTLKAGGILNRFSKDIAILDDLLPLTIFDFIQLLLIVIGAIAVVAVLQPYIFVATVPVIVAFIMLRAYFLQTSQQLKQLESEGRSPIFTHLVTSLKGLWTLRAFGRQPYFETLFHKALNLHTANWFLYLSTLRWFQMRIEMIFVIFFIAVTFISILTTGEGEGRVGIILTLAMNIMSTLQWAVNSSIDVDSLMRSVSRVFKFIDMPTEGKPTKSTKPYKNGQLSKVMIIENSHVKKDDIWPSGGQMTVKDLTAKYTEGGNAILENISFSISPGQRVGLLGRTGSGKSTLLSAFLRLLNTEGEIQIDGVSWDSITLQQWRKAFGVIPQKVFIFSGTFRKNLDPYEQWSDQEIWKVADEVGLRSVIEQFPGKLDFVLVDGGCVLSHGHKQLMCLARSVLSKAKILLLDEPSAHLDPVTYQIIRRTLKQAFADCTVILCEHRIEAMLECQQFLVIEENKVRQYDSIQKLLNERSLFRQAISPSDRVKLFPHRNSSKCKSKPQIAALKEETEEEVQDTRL

Compound: Cc1cccc(C)c1-c1cc2nc(n1)NS(=O)(=O)c1cccc(c1)C(=O)N(Cc1ccc(C3CCCCC3)cc1)[C@H](CC(C)(C)C)CO2 [Compound 495]
- pEC50 (Table 10): 5.52 to 6.00
- Emax [1]: > 60%

Compound: Cc1cccc(C)c1-c1cc2nc(n1)NS(=O)(=O)c1cccc(c1)C(=O)N(Cc1ccc(C(C)(C)C)cn1)[C@H](CC(C)(C)C)CO2 [Compound 496]
- pEC50 (Table 10): > 6.00
- Emax [1]: > 60%

Compound: Cc1cccc(C)c1-c1cc2nc(n1)NS(=O)(=O)c1cccc(c1)C(=O)N(Cc1ccc(N(C)CC(C)(C)C)cn1)[C@H](CC(C)(C)C)CO2 [Compound 497]
- pEC50 (Table 10): 5.52 to 6.00
- Emax [1]: > 60%

Compound: Cc1cccc(C)c1-c1cc2nc(n1)NS(=O)(=O)c1cccc(c1)C(=O)N(Cc1ccc(N3CCOCC3)cc1)[C@H](CC(C)(C)C)CO2 [Compound 498]
- pEC50 (Table 10): > 6.00
- Emax [1]: > 60%

Compound: Cc1cccc(C)c1-c1cc2nc(n1)NS(=O)(=O)c1cccc(c1)C(=O)N(Cc1ccc(-c3ccccc3)cn1)[C@H](CC(C)(C)C)CO2 [Compound 499]
- pEC50 (Table 10): > 6.00
- Emax [1]: > 60%

Compound: Cc1ccc(CN2C(=O)c3cccc(c3)S(=O)(=O)Nc3nc(cc(-c4c(C)cccc4C)n3)OC[C@H]2CC(C)(C)C)nc1 [Compound 500]
- pEC50 (Table 10): > 6.00
- Emax [1]: > 60%

Compound: COc1ccc(CN2C(=O)c3cccc(c3)S(=O)(=O)Nc3nc(cc(-c4c(C)cccc4C)n3)OC[C@H]2CC(C)(C)C)nc1 [Compound 501]
- pEC50 (Table 10): > 6.00
- Emax [1]: > 60%

Compound: Cc1cccc(C)c1-c1cc2nc(n1)NS(=O)(=O)c1cccc(c1)C(=O)N(Cc1ccc(N3CCCCC3)cn1)[C@H](CC(C)(C)C)CO2 [Compound 502]
- pEC50 (Table 10): > 6.00
- Emax [1]: > 60%

Compound: Cc1cccc(C)c1-c1cc2nc(n1)NS(=O)(=O)c1cccc(c1)C(=O)N(Cc1ccc(N(C)C)cn1)[C@H](CC(C)(C)C)CO2 [Compound 503]
- pEC50 (Table 10): > 6.00
- Emax [1]: > 60%

Compound: COCCN(C)c1ccc(CN2C(=O)c3cccc(c3)S(=O)(=O)Nc3nc(cc(-c4c(C)cccc4C)n3)OC[C@H]2CC(C)(C)C)nc1 [Compound 504]
- pEC50 (Table 10): 5.52 to 6.00
- Emax [1]: > 60%

Compound: Cc1cccc(C)c1-c1cc2nc(n1)NS(=O)(=O)c1cccc(c1)C(=O)N(Cc1cnc(N3CCOCC3)cn1)[C@H](CC(C)(C)C)CO2 [Compound 505]
- pEC50 (Table 10): > 6.00
- Emax [1]: > 60%

Compound: Cc1cccc(C)c1-c1cc2nc(n1)NS(=O)(=O)c1cccc(c1)C(=O)N(Cc1c(F)cc(C3CCOCC3)cc1F)[C@H](CC(C)(C)C)CO2 [Compound 517]
- activation at 10 µM (Table 13): > 600%

Compound: Cc1cccc(C)c1-c1cc2nc(n1)NS(=O)(=O)c1cccc(c1)C(=O)N(Cc1ccc(C3CCOCC3)cc1F)[C@H](CC(C)(C)C)CO2 [Compound 518]
- activation at 10 µM (Table 13): > 600%

Compound: Cc1cc(C2CCOCC2)ccc1CN1C(=O)c2cccc(c2)S(=O)(=O)Nc2nc(cc(-c3c(C)cccc3C)n2)OC[C@H]1CC(C)(C)C [Compound 519]
- activation at 10 µM (Table 13): > 600%

Compound: Cc1cccc(C)c1-c1cc2nc(n1)NS(=O)(=O)c1cccc(c1)C(=O)N(Cc1ncc(C3CCOCC3)cc1F)[C@H](CC(C)(C)C)CO2 [Compound 521]
- activation at 10 µM (Table 12): > 600%

Compound: Cc1cccc(C)c1-c1cc2nc(n1)NS(=O)(=O)c1cccc(c1)C(=O)N(Cc1ncc(N3CCC(C)(C)CC3)cc1F)[C@H](CC(C)(C)C)CO2 [Compound 522]
- pEC50 (Table 12): > 6.00
- Emax [2]: > 60%

Compound: Cc1cccc(C)c1-c1cc2cc(n1)NS(=O)(=O)c1cccc(c1)C(=O)N(Cc1ncc(CC(C)C)cn1)[C@H](CC(C)(C)C)CO2 [Compound 523]
- activation at 10 µM (Table 12): > 600%

Compound: Cc1cccc(C)c1-c1cc2cc(n1)NS(=O)(=O)c1cccc(c1)C(=O)N(Cc1ncc(N3CCC(C)(C)C3)cn1)[C@H](CC(C)(C)C)CO2 [Compound 524]
- pEC50 (Table 12): > 6.00
- Emax [2]: > 60%

Compound: Cc1cccc(C)c1-c1cc2cc(n1)NS(=O)(=O)c1cccc(c1)C(=O)N(Cc1cccc(N3CCC[C@H]3C)n1)[C@H](CC(C)(C)C)CO2 [Compound 526]
- pEC50 (Table 12): > 6.00
- Emax [2]: > 60%

Compound: Cc1cccc(C)c1-c1cc2cc(n1)NS(=O)(=O)c1cccc(c1)C(=O)N(Cc1cncc(N(C)CC(C)(C)C)n1)[C@H](CC(C)(C)C)CO2 [Compound 527]
- pEC50 (Table 12): > 6.00
- Emax [2]: > 60%

Compound: Cc1cccc(C)c1-c1cc2nc(n1)NS(=O)(=O)c1cccc(c1)C(=O)N(Cc1ccc(C(C)(C)C)nc1C)[C@H](CC(C)(C)C)CO2 [Compound 528]
- Emax [1]: > 60%

Compound: Cc1cccc(C)c1-c1cc2nc(n1)NS(=O)(=O)c1cccc(c1)C(=O)N(Cc1ccc(N(C)C)nc1)[C@H](CC(C)(C)C)CO2 [Compound 529]
- pEC50 (Table 10): > 6.00
- Emax [1]: > 60%

Compound: Cc1cccc(C)c1-c1cc2nc(n1)NS(=O)(=O)c1cccc(c1)C(=O)N(Cc1cccc(N(CCO)C(C)C)n1)[C@H](CC(C)(C)C)CO2 [Compound 530]
- pEC50 (Table 13): > 6.00
- Emax [3]: > 60%

Compound: Cc1cccc(C)c1-c1cc2nc(n1)NS(=O)(=O)c1cccc(c1)C(=O)N(Cc1cccc(N3CCC34CCC(C)(C)C4)n1)[C@H](CC(C)(C)C)CO2 (some centres unmarked) [Compound 531]
- pEC50 (Table 13): > 6.00
- Emax [3]: > 60%

Compound: Cc1cccc(C)c1-c1cc2nc(n1)NS(=O)(=O)c1cccc(c1)C(=O)N(Cc1cccc(N3CCC34CCOC4)n1)[C@H](CC(C)(C)C)CO2 (some centres unmarked) [Compound 532]
- pEC50 (Table 13): > 6.00
- Emax [3]: > 60%

Compound: Cc1cccc(C)c1-c1cc2nc(n1)NS(=O)(=O)c1cccc(c1)C(=O)N(Cc1cccc(N3CCC[C@@H]3C#N)n1)[C@H](CC(C)(C)C)CO2 [Compound 533]
- activation at 10 µM (Table 13): > 600%

Compound: Cc1cccc(C)c1-c1cc2nc(n1)NS(=O)(=O)c1cccc(c1)C(=O)N(Cc1cccc(N3CCC[C@H]3C#N)n1)[C@H](CC(C)(C)C)CO2 [Compound 534]
- activation at 10 µM (Table 13): > 600%

Compound: Cc1cccc(C)c1-c1cc2nc(n1)NS(=O)(=O)c1cccc(c1)C(=O)N(Cc1ncc(N3[C@H](C)CC[C@@H]3C)cn1)[C@H](CC(C)(C)C)CO2 [Compound 535]
- activation at 10 µM (Table 13): > 600%
- pEC50 (Table 13): > 6.00
- Emax [3]: > 60%

Compound: Cc1cccc(C)c1-c1cc2nc(n1)NS(=O)(=O)c1cccc(c1)C(=O)N(Cc1cccc(N3CCC34CCOCC4)n1)[C@H](CC(C)(C)C)CO2 [Compound 536]
- activation at 10 µM (Table 13): > 600%
- pEC50 (Table 13): > 6.00
- Emax [3]: > 60%

Compound: Cc1cccc(C)c1-c1cc2nc(n1)NS(=O)(=O)c1cccc(c1)C(=O)N(Cc1ncc(N3CCCC3(C)C)cn1)[C@H](CC(C)(C)C)CO2 [Compound 537]
- pEC50 (Table 13): > 6.00
- Emax [3]: > 60%

Compound: Cc1cccc(C)c1-c1cc2nc(n1)NS(=O)(=O)c1cccc(c1)C(=O)N(Cc1nccc(C(C)C(C)C)n1)[C@H](CC(C)(C)C)CO2 (some centres unmarked) [Compound 538]
- activation at 10 µM (Table 13): > 600%

Compound: Cc1cccc(C)c1-c1cc2nc(n1)NS(=O)(=O)c1cccc(c1)C(=O)N(Cc1cccc(N3CCCC3C(N)=O)n1)[C@H](CC(C)(C)C)CO2 (some centres unmarked) [Compound 539]
- activation at 10 µM (Table 13): > 600%

Compound: Cc1cccc(C)c1-c1cc2nc(n1)NS(=O)(=O)c1cccc(c1)C(=O)N(Cc1ncc(N3CC[C@](C)(O)C3)cn1)[C@H](CC(C)(C)C)CO2 [Compound 541]
- pEC50 (Table 12): > 6.00
- Emax [2]: > 60%

Compound: Cc1cccc(C)c1-c1cc2nc(n1)NS(=O)(=O)c1cccc(c1)C(=O)N(Cc1ncc(N3CC[C@@](C)(O)C3)cn1)[C@H](CC(C)(C)C)CO2 [Compound 542]
- pEC50 (Table 12): > 6.00
- Emax [2]: > 60%

Compound: COC1(C)CCN(c2cnc(CN3C(=O)c4cccc(c4)S(=O)(=O)Nc4nc(cc(-c5c(C)cccc5C)n4)OC[C@H]3CC(C)(C)C)nc2)C1 (some centres unmarked) [Compound 543]
- pEC50 (Table 12): > 6.00
- Emax [2]: > 60%
